Source: patent US10597388B2, “Pyridazinone herbicides” (FMC CORPORATION, priority 2014, dated 2020)

Tests used:
Experiment in all cases: Test C greenhouse herbicide test, pre- and postemergence
Type in all cases: in vivo
[1] = test system: lambsquarters (Chenopodium album)
In short: (§1)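 Visual 0–100 injury score (100 = complete control) taken against untreated controls after 13–15 d in greenhouse. Test chemicals, formulated in solvent plus surfactant, applied preemergence to seeds in loam–sand soil or postemergence to 1- to 4-leaf plants (2–18 cm).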

[2] = test system: ryegrass, Italian (Italian ryegrass, Lolium multiflorum)
In short: as §1

[3] = test system: barnyardgrass (Echinochloa crus-galli)
In short: as §1

[4] = test system: morningglory (Ipomoea coccinea)
In short: as §1

[5] = test system: johnsongrass (Sorghum halepense)
In short: as §1

corn (Zea mays) = test system: corn (Zea mays)
In short: as §1

[6] = test system: nutsedge, yellow (yellow nutsedge, Cyperus esculentus)
In short: as §1

[7] = test system: blackgrass (Alopecurus myosuroides)
In short: as §1

soybean (Glycine max) = test system: soybean (Glycine max)
In short: as §1

[8] = test system: crabgrass, large (large crabgrass, Digitaria sanguinalis)
In short: as §1

[9] = test system: velvetleaf (Abutilon theophrasti)
In short: as §1

[10] = test system: waterhemp (common waterhemp, Amaranthus rudis)
In short: as §1

[11] = test system: ragweed (common ragweed, Ambrosia elatior)
In short: as §1

[12] = test system: pigweed (Amaranthus retroflexus)
In short: as §1

[13] = test system: wheat (winter wheat, Triticum aestivum)
In short: as §1

[14] = Postemergence, 31 g ai/ha, 0 to 100 scale (0 no effect, 100 complete control)
[15] = Postemergence, 125 g ai/ha, scale 0 to 100, 0 is no effect, 100 is complete control
[16] = Postemergence, 250 g ai/ha, scale 0 to 100, 0 no effect, 100 complete control, 13 to 15 d
[17] = Preemergence, 31 g ai/ha, scale 0 to 100, 0 is no effect, 100 is complete control
[18] = Preemergence, 62 g ai/ha, scale 0 to 100, 0 is no effect, 100 is complete control
[19] = Preemergence, 125 g ai/ha, scale 0 to 100, 0 is no effect, 100 is complete control
[20] = Preemergence, 250 g ai/ha, scale 0 to 100, 0 no effect, 100 complete control
[21] = postemergence, 62 g ai/ha, scale 0 to 100, 0 no effect, 100 complete control

For `CCc1sc2c(C)cc(C)cc2c1-c1c(O)c(C)nn(C)c1=O` [Compound 57], the “Lambsquarters plant response rating” value [1, 14] was 70, the “Plant response rating, Lambsquarters” value [1, 15] was 95 and the “Plant response rating, Lambsquarters” value [1, 16] was 90. For the same molecule, the “Plant response rating, Lambsquarters” value [1, 17] was 100, the “Plant response rating, Lambsquarters” value [1, 18] was 100 and the “Plant response rating, Lambsquarters” value [1, 19] was 100. The “Lambsquarters plant response rating” value [1, 20] was 100, the “Lambsquarters plant response rating” value [1, 21] was 70 and the “Ryegrass, Italian plant response rating” value [2, 14] was 25. The “Plant response rating, Ryegrass, Italian” value [2, 15] was 50, the “Plant response rating, Ryegrass, Italian” value [2, 16] was 60 and the “Plant response rating, Ryegrass, Italian” value [2, 17] was 45. For the same molecule, the “Plant response rating, Ryegrass, Italian” value [2, 18] was 65, the “Plant response rating, Ryegrass, Italian” value [2, 19] was 70 and the “Ryegrass, Italian plant response rating” value [2, 20] was 85. For the same molecule, the “Ryegrass, Italian plant response rating” value [2, 21] was 30, the “Barnyardgrass plant response rating” value [3, 14] was 90 and the “Plant response rating, Barnyardgrass” value [3, 15] was 95. The “Plant response rating, Barnyardgrass” value [3, 16] was 98, the “Plant response rating, Barnyardgrass” value [3, 17] was 5 and the “Plant response rating, Barnyardgrass” value [3, 18] was 90. For the same molecule, the “Plant response rating, Barnyardgrass” value [3, 19] was 100, the “Barnyardgrass plant response rating” value [3, 20] was 100 and the “Barnyardgrass plant response rating” value [3, 21] was 95. For the same molecule, the “Morningglory plant response rating” value [4, 14] was 95, the “Plant response rating, Morningglory” value [4, 15] was 100 and the “Plant response rating, Morningglory” value [4, 16] was 100. For the same molecule, the “Plant response rating, Morningglory” value [4, 17] was 100, the “Plant response rating, Morningglory” value [4, 18] was 100 and the “Plant response rating, Morningglory” value [4, 19] was 100. For the same molecule, the “Morningglory plant response rating” value [4, 20] was 100, the “Morningglory plant response rating” value [4, 21] was 100 and the “Johnsongrass plant response rating” value [5, 14] was 5. For the same molecule, the “Plant response rating, Johnsongrass” value [5, 15] was 5, the “Plant response rating, Johnsongrass” value [5, 16] was 10 and the “Plant response rating, Johnsongrass” value [5, 17] was 0. The “Plant response rating, Johnsongrass” value [5, 18] was 0, the “Plant response rating, Johnsongrass” value [5, 19] was 0 and the “Johnsongrass plant response rating” value [5, 20] was 0. The “Johnsongrass plant response rating” value [5, 21] was 5, the “Corn plant response rating” value (corn (Zea mays); [14]) was 0 and the “Plant response rating, Corn” value (corn (Zea mays); [15]) was 5. The “Plant response rating, Corn” value (corn (Zea mays); [16]) was 10, the “Plant response rating, Corn” value (corn (Zea mays); [17]) was 0 and the “Plant response rating, Corn” value (corn (Zea mays); [19]) was 0. For the same molecule, the “Corn plant response rating” value (corn (Zea mays); [20]) was 35, the “Corn plant response rating” value (corn (Zea mays); [21]) was 5 and the “Nutsedge, Yellow plant response rating” value [6, 14] was 90. The “Plant response rating, Nutsedge, Yellow” value [6, 15] was 90, the “Plant response rating, Nutsedge, Yellow” value [6, 16] was 90 and the “Plant response rating, Nutsedge, Yellow” value [6, 17] was 10. For the same molecule, the “Plant response rating, Nutsedge, Yellow” value [6, 18] was 30, the “Plant response rating, Nutsedge, Yellow” value [6, 19] was 90 and the “Nutsedge, Yellow plant response rating” value [6, 20] was 95. The “Nutsedge, Yellow plant response rating” value [6, 21] was 90, the “Blackgrass plant response rating” value [7, 14] was 5 and the “Plant response rating, Blackgrass” value [7, 15] was 5. The “Plant response rating, Blackgrass” value [7, 16] was 25, the “Plant response rating, Blackgrass” value [7, 17] was 30 and the “Plant response rating, Blackgrass” value [7, 18] was 60. The “Plant response rating, Blackgrass” value [7, 19] was 70, the “Blackgrass plant response rating” value [7, 20] was 80 and the “Blackgrass plant response rating” value [7, 21] was 5. The “Soybean plant response rating” value (soybean (Glycine max); [14]) was 0, the “Plant response rating, Soybean” value (soybean (Glycine max); [15]) was 0 and the “Plant response rating, Soybean” value (soybean (Glycine max); [16]) was 5. For the same molecule, the “Plant response rating, Soybean” value (soybean (Glycine max); [17]) was 0, the “Plant response rating, Soybean” value (soybean (Glycine max); [18]) was 0 and the “Plant response rating, Soybean” value (soybean (Glycine max); [19]) was 0. The “Soybean plant response rating” value (soybean (Glycine max); [20]) was 0, the “Soybean plant response rating” value (soybean (Glycine max); [21]) was 0 and the “Crabgrass, Large plant response rating” value [8, 14] was 10. For the same molecule, the “Plant response rating, Crabgrass, Large” value [8, 15] was 30, the “Plant response rating, Crabgrass, Large” value [8, 16] was 35 and the “Plant response rating, Crabgrass, Large” value [8, 17] was 0. The “Plant response rating, Crabgrass, Large” value [8, 18] was 35, the “Plant response rating, Crabgrass, Large” value [8, 19] was 98 and the “Crabgrass, Large plant response rating” value [8, 20] was 100. For the same molecule, the “Crabgrass, Large plant response rating” value [8, 21] was 20, the “Velvetleaf plant response rating” value [9, 14] was 90 and the “Plant response rating, Velvetleaf” value [9, 15] was 100. For the same molecule, the “Plant response rating, Velvetleaf” value [9, 16] was 100, the “Plant response rating, Velvetleaf” value [9, 17] was 50 and the “Plant response rating, Velvetleaf” value [9, 18] was 80. The “Plant response rating, Velvetleaf” value [9, 19] was 95, the “Velvetleaf plant response rating” value [9, 20] was 100 and the “Velvetleaf plant response rating” value [9, 21] was 95. The “Waterhemp plant response rating” value [10, 14] was 50, the “Plant response rating, Waterhemp” value [10, 15] was 85 and the “Plant response rating, Waterhemp” value [10, 16] was 100. For the same molecule, the “Plant response rating, Waterhemp” value [10, 17] was 90, the “Plant response rating, Waterhemp” value [10, 18] was 98 and the “Plant response rating, Waterhemp” value [10, 19] was 100. For the same molecule, the “Waterhemp plant response rating” value [10, 20] was 100, the “Waterhemp plant response rating” value [10, 21] was 65 and the “Ragweed plant response rating” value [11, 14] was 60. For the same molecule, the “Plant response rating, Ragweed” value [11, 15] was 85, the “Plant response rating, Ragweed” value [11, 16] was 95 and the “Plant response rating, Ragweed” value [11, 17] was 70. The “Plant response rating, Ragweed” value [11, 18] was 95, the “Plant response rating, Ragweed” value [11, 19] was 100 and the “Ragweed plant response rating” value [11, 20] was 100. For the same molecule, the “Ragweed plant response rating” value [11, 21] was 90, the “Pigweed plant response rating” value [12, 14] was 60 and the “Plant response rating, Pigweed” value [12, 15] was 85. For the same molecule, the “Plant response rating, Pigweed” value [12, 16] was 100, the “Plant response rating, Pigweed” value [12, 17] was 100 and the “Plant response rating, Pigweed” value [12, 18] was 100. For the same molecule, the “Plant response rating, Pigweed” value [12, 19] was 100, the “Pigweed plant response rating” value [12, 20] was 100 and the “Pigweed plant response rating” value [12, 21] was 80. The “Wheat plant response rating” value [13, 14] was 0, the “Plant response rating, Wheat” value [13, 15] was 0 and the “Plant response rating, Wheat” value [13, 16] was 5. The “Plant response rating, Wheat” value [13, 17] was 0, the “Plant response rating, Wheat” value [13, 18] was 0 and the “Plant response rating, Wheat” value [13, 19] was 0. For the same molecule, the “Wheat plant response rating” value [13, 20] was 5 and the “Wheat plant response rating” value [13, 21] was 0.
